# Earlier results as cited in patent publication US20260232577A1, “A MACROLIDE FOR USE IN A METHOD OF PREVENTING OR TREATING AN IMMUNOLOGICAL DISEASE OR DISORDER” (Nucleus Medical GmbH, priority 2023, published 2026).
compound,measurement,setting,value
C=CC[C@@H]1/C=C(\C)C[C@H](C)C[C@H](OC)[C@H]2O[C@@](O)(C(=O)C(=O)N3CCCC[C@H]3C(=O)O[C@H](/C(C)=C/[C@@H]3CC[C@@H](O)[C@H](OC)C3)[C@H](C)[C@@H](O)CC1=O)[C@H](C)C[C@@H]2OC [tacrolimus],bioavailability variability,"after oral administration, international literature",4-90%
same,"blood level fluctuations, variation range","after oral application, internationally described",more than 80%
same,oral bioavailability on average,limited by presystemic metabolism in the GI tract,~ 25%
